Measurements as given in the supplement of paper PMC10307832.

What was measured:
Test in all cases: relative viability (nuclei count vs DMSO), 5 days (fraction); higher = more cells survive
[1] = test system: 201T
How it was run: (§1)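 Nuclei were stained with Hoechst during a one-step fixation (final 0.05% Triton X-100, 1% formaldehyde, 1 ug/ml Hoechst) carried out 5 days after dosing, then counted on 4× images. The cells, lung cancer lines in 1536-well plates, had been dosed by pin tool the day after seeding with one drug alone or a fixed anchor-drug dose plus five library-drug doses (not always all listed) in √10 steps. Relative viability is the nuclei count in treated wells divided by that in vehicle wells, and each value is the median of duplicate plates.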

[2] = test system: BEN
How it was run: as §1

[3] = test system: COR-L 105
How it was run: as §1

[4] = test system: EKVX
How it was run: as §1

[5] = test system: EPLC-272H
How it was run: as §1

[6] = test system: H3255
How it was run: as §1

[7] = test system: HCC-44
How it was run: as §1

[8] = test system: HCC-827
How it was run: as §1

[9] = test system: LCLC-97TM1
How it was run: as §1

[10] = test system: LOU-NH91
How it was run: as §1

[11] = test system: LU99A
How it was run: as §1

[12] = test system: NCI-H1437
How it was run: as §1

[13] = test system: NCI-H1666
How it was run: as §1

[14] = test system: NCI-H1975
How it was run: as §1

[15] = test system: NCI-H2085
How it was run: as §1

[16] = test system: NCI-H2087
How it was run: as §1

[17] = test system: NCI-H2170
How it was run: as §1

[18] = test system: NCI-H2342
How it was run: as §1

[19] = test system: NCI-H647
How it was run: as §1

[20] = test system: NCI-H650
How it was run: as §1

[21] = test system: PC-3 [JPC-3]
How it was run: as §1

[22] = test system: SW 1573
How it was run: as §1

Question: For `Nc1ccn([C@@H]2O[C@H](CO)[C@@H](O)[C@@H]2O)c(=O)n1` [Cytarabine] + Nc1ncn([C@H]2C[C@H](O)[C@@H](CO)O2)c(=O)n1 [Decitabine] (partner 2 µM), which relative viability ([1]; first compound 0.005 µM) is on record?
Answer: 0.847

Question: What about the relative viability ([1]; first compound 0.01581 µM) of the same molecule?
Answer: 0.853

Question: What about the relative viability ([1]; first compound 0.05 µM) of the same molecule?
Answer: 0.802

Question: What about the relative viability ([1]; first compound 0.1581 µM) of the same molecule?
Answer: 0.72

Question: And the relative viability ([1]; first compound 0.5 µM)?
Answer: 0.668

Question: What about the relative viability ([2]; first compound 0.005 µM) of the same molecule?
Answer: 0.675

Question: And the relative viability ([2]; first compound 0.01581 µM)?
Answer: 0.558

Question: What about the relative viability ([2]; first compound 0.05 µM) of the same molecule?
Answer: 0.43

Question: What about the relative viability ([2]; first compound 0.1581 µM) of the same molecule?
Answer: 0.345

Question: And the relative viability ([2]; first compound 0.5 µM)?
Answer: 0.31

Question: What about the relative viability ([3]; first compound 0.005 µM) of the same molecule?
Answer: 0.623

Question: And the relative viability ([3]; first compound 0.01581 µM)?
Answer: 0.642

Question: And the relative viability ([3]; first compound 0.05 µM)?
Answer: 0.426

Question: What about the relative viability ([3]; first compound 0.1581 µM) of the same molecule?
Answer: 0.398

Question: And the relative viability ([3]; first compound 0.5 µM)?
Answer: 0.303

Question: And the relative viability ([4]; first compound 0.005 µM)?
Answer: 0.485

Question: And the relative viability ([4]; first compound 0.01581 µM)?
Answer: 0.282

Question: And the relative viability ([4]; first compound 0.05 µM)?
Answer: 0.259

Question: What about the relative viability ([4]; first compound 0.5 µM) of the same molecule?
Answer: 0.184

Question: What about the relative viability ([5]; first compound 0.005 µM) of the same molecule?
Answer: 0.403

Question: What about the relative viability ([5]; first compound 0.01581 µM) of the same molecule?
Answer: 0.358

Question: And the relative viability ([5]; first compound 0.05 µM)?
Answer: 0.346

Question: What about the relative viability ([5]; first compound 0.1581 µM) of the same molecule?
Answer: 0.224

Question: And the relative viability ([5]; first compound 0.5 µM)?
Answer: 0.247

Question: And the relative viability ([6]; first compound 0.005 µM)?
Answer: 0.732

Question: And the relative viability ([6]; first compound 0.01581 µM)?
Answer: 0.555

Question: What about the relative viability ([6]; first compound 0.05 µM) of the same molecule?
Answer: 0.637

Question: And the relative viability ([6]; first compound 0.1581 µM)?
Answer: 0.588

Question: And the relative viability ([6]; first compound 0.5 µM)?
Answer: 0.375

Question: And the relative viability ([7]; first compound 0.005 µM)?
Answer: 1.04

Question: What about the relative viability ([7]; first compound 0.01581 µM) of the same molecule?
Answer: 0.941

Question: What about the relative viability ([7]; first compound 0.05 µM) of the same molecule?
Answer: 0.87

Question: And the relative viability ([7]; first compound 0.1581 µM)?
Answer: 0.748

Question: And the relative viability ([7]; first compound 0.5 µM)?
Answer: 0.737

Question: What about the relative viability ([8]; first compound 0.005 µM) of the same molecule?
Answer: 0.232

Question: What about the relative viability ([8]; first compound 0.01581 µM) of the same molecule?
Answer: 0.239

Question: And the relative viability ([8]; first compound 0.05 µM)?
Answer: 0.182

Question: And the relative viability ([8]; first compound 0.1581 µM)?
Answer: 0.152

Question: And the relative viability ([8]; first compound 0.5 µM)?
Answer: 0.167

Question: What about the relative viability ([9]; first compound 0.005 µM) of the same molecule?
Answer: 0.205

Question: And the relative viability ([9]; first compound 0.01581 µM)?
Answer: 0.164

Question: And the relative viability ([9]; first compound 0.05 µM)?
Answer: 0.211

Question: What about the relative viability ([9]; first compound 0.1581 µM) of the same molecule?
Answer: 0.127

Question: What about the relative viability ([9]; first compound 0.5 µM) of the same molecule?
Answer: 0.111

Question: And the relative viability ([10]; first compound 0.005 µM)?
Answer: 0.751

Question: What about the relative viability ([10]; first compound 0.01581 µM) of the same molecule?
Answer: 0.742

Question: What about the relative viability ([10]; first compound 0.05 µM) of the same molecule?
Answer: 0.696

Question: What about the relative viability ([10]; first compound 0.1581 µM) of the same molecule?
Answer: 0.545

Question: And the relative viability ([10]; first compound 0.5 µM)?
Answer: 0.491

Question: And the relative viability ([11]; first compound 0.005 µM)?
Answer: 0.863

Question: And the relative viability ([11]; first compound 0.01581 µM)?
Answer: 0.781

Question: And the relative viability ([11]; first compound 0.05 µM)?
Answer: 0.93

Question: And the relative viability ([11]; first compound 0.1581 µM)?
Answer: 0.925

Question: And the relative viability ([11]; first compound 0.5 µM)?
Answer: 0.823

Question: And the relative viability ([12]; first compound 0.005 µM)?
Answer: 0.498

Question: What about the relative viability ([12]; first compound 0.01581 µM) of the same molecule?
Answer: 0.442

Question: What about the relative viability ([12]; first compound 0.05 µM) of the same molecule?
Answer: 0.48

Question: What about the relative viability ([12]; first compound 0.1581 µM) of the same molecule?
Answer: 0.338

Question: And the relative viability ([12]; first compound 0.5 µM)?
Answer: 0.268

Question: What about the relative viability ([13]; first compound 0.005 µM) of the same molecule?
Answer: 0.73

Question: And the relative viability ([13]; first compound 0.01581 µM)?
Answer: 0.633

Question: And the relative viability ([13]; first compound 0.05 µM)?
Answer: 0.543

Question: And the relative viability ([13]; first compound 0.1581 µM)?
Answer: 0.523

Question: What about the relative viability ([13]; first compound 0.5 µM) of the same molecule?
Answer: 0.455

Question: What about the relative viability ([14]; first compound 0.005 µM) of the same molecule?
Answer: 0.336

Question: And the relative viability ([14]; first compound 0.01581 µM)?
Answer: 0.353

Question: What about the relative viability ([14]; first compound 0.05 µM) of the same molecule?
Answer: 0.562

Question: What about the relative viability ([14]; first compound 0.1581 µM) of the same molecule?
Answer: 0.271

Question: And the relative viability ([14]; first compound 0.5 µM)?
Answer: 0.257

Question: And the relative viability ([15]; first compound 0.005 µM)?
Answer: 0.491

Question: And the relative viability ([15]; first compound 0.01581 µM)?
Answer: 0.512

Question: What about the relative viability ([15]; first compound 0.05 µM) of the same molecule?
Answer: 0.518

Question: And the relative viability ([15]; first compound 0.1581 µM)?
Answer: 0.483

Question: And the relative viability ([15]; first compound 0.5 µM)?
Answer: 0.559

Question: And the relative viability ([16]; first compound 0.005 µM)?
Answer: 0.316

Question: What about the relative viability ([16]; first compound 0.01581 µM) of the same molecule?
Answer: 0.225

Question: And the relative viability ([16]; first compound 0.05 µM)?
Answer: 0.303

Question: And the relative viability ([16]; first compound 0.1581 µM)?
Answer: 0.109

Question: And the relative viability ([16]; first compound 0.5 µM)?
Answer: 0.133

Question: What about the relative viability ([17]; first compound 0.005 µM) of the same molecule?
Answer: 0.393

Question: And the relative viability ([17]; first compound 0.01581 µM)?
Answer: 0.346

Question: And the relative viability ([17]; first compound 0.05 µM)?
Answer: 0.355

Question: And the relative viability ([17]; first compound 0.1581 µM)?
Answer: 0.254

Question: What about the relative viability ([17]; first compound 0.5 µM) of the same molecule?
Answer: 0.241

Question: What about the relative viability ([18]; first compound 0.005 µM) of the same molecule?
Answer: 0.712

Question: And the relative viability ([18]; first compound 0.01581 µM)?
Answer: 0.702

Question: What about the relative viability ([18]; first compound 0.05 µM) of the same molecule?
Answer: 0.7

Question: And the relative viability ([18]; first compound 0.1581 µM)?
Answer: 0.482

Question: What about the relative viability ([18]; first compound 0.5 µM) of the same molecule?
Answer: 0.483

Question: And the relative viability ([19]; first compound 0.005 µM)?
Answer: 0.307

Question: What about the relative viability ([19]; first compound 0.01581 µM) of the same molecule?
Answer: 0.239

Question: What about the relative viability ([19]; first compound 0.05 µM) of the same molecule?
Answer: 0.258

Question: And the relative viability ([19]; first compound 0.1581 µM)?
Answer: 0.108

Question: And the relative viability ([19]; first compound 0.5 µM)?
Answer: 0.0719

Question: What about the relative viability ([20]; first compound 0.005 µM) of the same molecule?
Answer: 0.326

Question: What about the relative viability ([20]; first compound 0.01581 µM) of the same molecule?
Answer: 0.255

Question: What about the relative viability ([20]; first compound 0.05 µM) of the same molecule?
Answer: 0.247

Question: And the relative viability ([20]; first compound 0.1581 µM)?
Answer: 0.152

Question: And the relative viability ([20]; first compound 0.5 µM)?
Answer: 0.152

Question: And the relative viability ([21]; first compound 0.005 µM)?
Answer: 0.824

Question: And the relative viability ([21]; first compound 0.01581 µM)?
Answer: 0.763

Question: What about the relative viability ([21]; first compound 0.05 µM) of the same molecule?
Answer: 0.581

Question: And the relative viability ([21]; first compound 0.1581 µM)?
Answer: 0.468

Question: What about the relative viability ([21]; first compound 0.5 µM) of the same molecule?
Answer: 0.507

Question: What about the relative viability ([22]; first compound 0.005 µM) of the same molecule?
Answer: 0.347

Question: And the relative viability ([22]; first compound 0.01581 µM)?
Answer: 0.184

Question: What about the relative viability ([22]; first compound 0.05 µM) of the same molecule?
Answer: 0.247

Question: And the relative viability ([22]; first compound 0.1581 µM)?
Answer: 0.121

Question: What about the relative viability ([22]; first compound 0.5 µM) of the same molecule?
Answer: 0.083
